# Laboratory results taken from the NIST ThermoML archive (doi:10.1016/j.jct.2016.05.023).
# Numbers after ± are expanded uncertainties.
# Conditions: Crystal; DTA
row,Compound,Normal melting temperature [°C]
1,CC(=O)[O-].CCCCCCCCCCCCCC[P+](CCCCCC)(CCCCCC)CCCCCC [trihexyl(tetradecyl)phosphonium acetate],-67 ± 2
2,CCCCCCCCCCCCCC[P+](CCCCCC)(CCCCCC)CCCCCC.[Cl-] [trihexyl(tetradecyl)phosphonium chloride],-66 ± 2
3,CCn1cc[n+](C)c1.[Cl-] [1-ethyl-3-methylimidazolium chloride],84 ± 2

# Same assay, conditions: Glass; DSC
row,Compound,Glass transition temperature [°C]
1,CCCCCCn1cc[n+](C)c1.[Cl-] [1-hexyl-3-methylimidazolium chloride],-65 ± 2
2,CC(=O)[O-].CCCCn1cc[n+](C)c1 [1-butyl-3-methylimidazolium acetate],-63 ± 2

# Other lines, results leading:
row,Glass transition temperature [°C],Compound
1,-71 ± 2,CC(=O)[O-].CCn1cc[n+](C)c1 [1-ethyl-3-methylimidazolium acetate]
2,-52 ± 2,CCCCn1cc[n+](C)c1.[Cl-] [1-butyl-3-methylimidazolium chloride]
3,-74 ± 2,CCCCCCCC[n+]1ccn(C)c1.[Cl-] [1-methyl-3-octylimidazolium chloride]
